Columns and labels:
rat [1] = details: Multigenerational reproductive toxicity study, sprague dawley, Oral, Feed, dose end: 2 generation
mouse [2] = details: Carcinogenicity, cd1, Oral, Feed, dose end: 78 week, group: systemic
rat [3] = details: Subchronic oral toxicity in rodents, sprague dawley, Feed, dose end: 13 week
rat [4] = details: Prenatal developmental toxicity study, Sprague-Dawley, Oral, Gavage/Intubation, dose end: 15 GD
dog [5] = details: Chronic toxicity, beagle, Oral, Capsule, dose end: 12 month
rabbit [6] = details: Prenatal developmental toxicity study, new zealand white, Oral, Gavage/Intubation, dose end: 19 GD
dog [7] = details: Subchronic oral toxicity in nonrodent, beagle, Feed, dose end: 3 month
mouse [8] = details: Combined chronic toxicity/carcinogenicity, other, Oral, Feed, dose end: 80 week, group: systemic
rat [9] = details: Subchronic oral toxicity in rodents, wistar, Feed, dose end: 13 week, group: systemic
rat [10] = details: Prenatal developmental toxicity study, sprague dawley, Oral, Gavage/Intubation, dose end: 15 GD
rabbit [11] = details: Prenatal developmental toxicity study, new zealand white, Oral, Gavage/Intubation, dose end: 18 GD
mouse [12] = details: Carcinogenicity, other, Oral, Feed, dose end: 18 month, group: systemic
mouse [13] = details: Subchronic oral toxicity in rodents, other, Feed, dose end: 13 week, group: systemic
rat [14] = details: Subchronic oral toxicity in rodents, sprague dawley, Gavage/Intubation, dose end: 91 day, group: systemic
[15] = group: offspring, systemic / in life observation / body weight / offspring (pup) weight
[16] = group: parental, systemic / in life observation / body weight / body weight
[17] = group: parental, systemic / in life observation / body weight / body weight + systemic / pathology microscopic / heart / cardiomyopathy
[18] = systemic / in life observation / body weight / body weight + systemic / in life observation / food consumption / food consumption
[19] = group: cholinesterase, cholinesterase / cholinesterase / cholinesterase / brain cholinesterase (che) + cholinesterase / cholinesterase / cholinesterase / plasma …
[20] = group: cholinesterase, cholinesterase / cholinesterase / cholinesterase / plasma cholinesterase (che)
[21] = group: systemic, systemic / in life observation / body weight / body weight + systemic / in life observation / body weight / body weight gain + systemic / in…
[22] = group: systemic, systemic / in life observation / body weight / body weight + systemic / in life observation / body weight / body weight gain + systemic / …
[23] = group: developmental, developmental / developmental malformation / bone / unossified + developmental / developmental malformation / trunk / omphalocele + systemic…
[24] = group: maternal, reproductive / reproductive performance / resorptions / resorptions + systemic / in life observation / body weight / body weight + systemic…
[25] = group: systemic, systemic / pathology microscopic / thymus / atrophy
[26] = group: cholinesterase, cholinesterase / cholinesterase / cholinesterase / erythrocyte cholinesterase (che) + cholinesterase / cholinesterase / cholinesterase / …
[27] = group: developmental, systemic / in life observation / body weight / fetal weight
[28] = group: maternal, systemic / in life observation / body weight / body weight + systemic / in life observation / clinical signs / fur (altered appearance) + …
[29] = group: systemic, systemic / in life observation / clinical signs / salivation + systemic / clinical chemistry / urea nitrogen / urea nitrogen + systemic / in…
[30] = systemic / clinical chemistry / immunoglobulins / immunoglobulins + systemic / pathology microscopic / thymus / cyst
[31] = systemic / clinical chemistry / aspartate aminotransferase (ast/sgot) / aspartate aminotransferase (ast/sgot) + systemic / in life …
[32] = group: developmental, developmental / developmental malformation / bone / unossified + systemic / in life observation / body weight / fetal weight
[33] = group: maternal, systemic / in life observation / body weight / body weight gain + systemic / in life observation / clinical signs / poor general condition
[34] = group: maternal, systemic / in life observation / body weight / body weight gain + systemic / in life observation / clinical signs / poor general condition…
[35] = group: developmental, systemic / in life observation / body weight / fetal weight + developmental / developmental malformation / bone / unossified
[36] = group: maternal, systemic / in life observation / body weight / body weight gain + reproductive / reproductive performance / aborted / aborted + systemic / …
[37] = systemic / clinical chemistry / immunoglobulins / immunoglobulins
[38] = systemic / organ weight / adrenal gland / absolute
[39] = systemic / organ weight / adrenal gland / absolute + systemic / clinical chemistry / albumin / albumin + systemic / clinical chemistry / …
[40] = systemic / in life observation / mortality / mortality + systemic / pathology microscopic / kidney / hydronephrosis + systemic / clinical …

CCCN(CCC)C(=O)SCC [EPTC]
LEL (rat [1]; [15]): 40 mg/kg/day | LOAEL (rat [1]; [15]): 40 mg/kg/day | NEL (rat [1]; [15]): 10 mg/kg/day | NOAEL (rat [1]; [15]): 10 mg/kg/day | NEL (rat [1]; [16]): 2.5 mg/kg/day | NOAEL (rat [1]; [16]): 2.5 mg/kg/day | LEL (rat [1]; [17]): 10 mg/kg/day | LOAEL (rat [1]; [17]): 10 mg/kg/day | LEL (mouse [2]; systemic / in life observation / body weight / body weight): 90 mg/kg/day | LOAEL (mouse [2]; [18]): 270 mg/kg/day | NEL (mouse [2]; [18]): 30 mg/kg/day | NOAEL (mouse [2]; [18]): 90 mg/kg/day | LOAEL (rat [3]; [19]): > 120 mg/kg/day | NOAEL (rat [3]; [19]): ≥ 120 mg/kg/day | LEL (rat [3]; [20]): 72 mg/kg/day | NEL (rat [3]; [20]): 15 mg/kg/day | LOAEL (rat [3]; [21]): 15 mg/kg/day | NOAEL (rat [3]; [21]): 3 mg/kg/day | LEL (rat [3]; [22]): 3 mg/kg/day | NEL (rat [3]; [22]): < 3 mg/kg/day | LEL (rat [4]; [23]): 300 mg/kg/day | LOAEL (rat [4]; [23]): 300 mg/kg/day | NEL (rat [4]; [23]): 100 mg/kg/day | NOAEL (rat [4]; [23]): 100 mg/kg/day | LEL (rat [4]; group: maternal, reproductive / reproductive performance / postimplantation loss / postimplantation loss): 100 mg/kg/day | LOAEL (rat [4]; [24]): 300 mg/kg/day | NEL (rat [4]; [24]): 30 mg/kg/day | NOAEL (rat [4]; [24]): 100 mg/kg/day | LEL (dog [5]; [20]): 8 mg/kg/day | LOAEL (dog [5]; [20]): 8 mg/kg/day | NEL (dog [5]; [20]): 1 mg/kg/day | NOAEL (dog [5]; [20]): 1 mg/kg/day | NOAEL (dog [5]; group: systemic, systemic / pathology microscopic / lung / fibrosis + systemic / pathology microscopic / lung / inflammation + systemic / clinical chemistry…): 1 mg/kg/day | LOAEL (dog [5]; group: systemic, systemic / pathology microscopic / lung / fibrosis + systemic / pathology microscopic / lung / inflammation + systemic / in life observation…): 8 mg/kg/day | LEL (dog [5]; [25]): 1 mg/kg/day | NEL (dog [5]; [25]): < 1 mg/kg/day | LEL (rabbit [6]; [26]): 5 mg/kg/day | LOAEL (rabbit [6]; [26]): 5 mg/kg/day | NEL (rabbit [6]; [26]): < 5 mg/kg/day | NOAEL (rabbit [6]; [26]): < 5 mg/kg/day | LEL (rabbit [6]; [27]): 300 mg/kg/day | LOAEL (rabbit [6]; [27]): 300 mg/kg/day | NEL (rabbit [6]; [27]): 40 mg/kg/day | NOAEL (rabbit [6]; [27]): 40 mg/kg/day | LEL (rabbit [6]; [28]): 300 mg/kg/day | LOAEL (rabbit [6]; [28]): 300 mg/kg/day | NEL (rabbit [6]; [28]): 40 mg/kg/day | NOAEL (rabbit [6]; [28]): 40 mg/kg/day | LEL (dog [7]; [20]): 45 mg/kg/day | LOAEL (dog [7]; [20]): 45 mg/kg/day | NEL (dog [7]; [20]): 15 mg/kg/day | NOAEL (dog [7]; [20]): 15 mg/kg/day | LOAEL (dog [7]; group: systemic, systemic / in life observation / clinical signs / salivation): 45 mg/kg/day | LEL (dog [7]; [29]): 45 mg/kg/day | NEL (dog [7]; [29]): 15 mg/kg/day | NOAEL (dog [7]; [29]): 15 mg/kg/day

[OH-].c1cc[c]([Sn+]([c]2ccccc2)[c]2ccccc2)cc1 [Triphenyltin hydroxide]
LEL (mouse [8]; [30]): 0.85 mg/kg/day | NEL (mouse [8]; [30]): < 0.85 mg/kg/day | NOAEL (mouse [8]; systemic / clinical chemistry / immunoglobulins / immunoglobulins + systemic / pathology microscopic / thymus / cyst + systemic / in life …): 3.5 mg/kg/day | LOAEL (mouse [8]; systemic / in life observation / body weight / body weight gain + systemic / organ weight / liver / absolute + systemic / organ weight / …): 15.2 mg/kg/day | LEL (rat [9]; systemic / clinical chemistry / aspartate aminotransferase (ast/sgot) / aspartate aminotransferase (ast/sgot) + systemic / clinical …): 1.56 mg/kg/day | LOAEL (rat [9]; [31]): 7.41 mg/kg/day | NEL (rat [9]; [31]): 0.3 mg/kg/day | NOAEL (rat [9]; [31]): 1.56 mg/kg/day | LEL (rat [10]; [32]): 8 mg/kg/day | LOAEL (rat [10]; [32]): 8 mg/kg/day | NEL (rat [10]; [32]): 2.8 mg/kg/day | NOAEL (rat [10]; [32]): 2.8 mg/kg/day | LEL (rat [10]; [33]): 2.8 mg/kg/day | LOAEL (rat [10]; [33]): 2.8 mg/kg/day | NEL (rat [10]; [34]): 1 mg/kg/day | NOAEL (rat [10]; [34]): 1 mg/kg/day | LOAEL (rabbit [11]; [27]): 0.9 mg/kg/day | LEL (rabbit [11]; [35]): 0.9 mg/kg/day | NEL (rabbit [11]; [35]): 0.3 mg/kg/day | NOAEL (rabbit [11]; [35]): 0.3 mg/kg/day | LOAEL (rabbit [11]; group: maternal, systemic / in life observation / body weight / body weight gain): 0.3 mg/kg/day | NEL (rabbit [11]; [36]): 0.1 mg/kg/day | NOAEL (rabbit [11]; [36]): 0.1 mg/kg/day | LEL (rabbit [11]; group: maternal, systemic / in life observation / body weight / body weight gain + systemic / in life observation / body weight / body weight + systemic / in…): 0.3 mg/kg/day | LOAEL (mouse [12]; [37]): 0.85 mg/kg/day | NOAEL (mouse [12]; [37]): < 0.85 mg/kg/day | LEL (mouse [12]; [30]): 0.85 mg/kg/day | NEL (mouse [12]; [30]): < 0.85 mg/kg/day | LEL (mouse [13]; [38]): 4.12 mg/kg/day | LOAEL (mouse [13]; [38]): 4.12 mg/kg/day | NEL (mouse [13]; [39]): 0.88 mg/kg/day | NOAEL (mouse [13]; [39]): 0.88 mg/kg/day

[PH]=[Zn].[PH]=[Zn].[Zn] [Zinc phosphide]
NEL (rat [14]; systemic / in life observation / clinical signs / body cold to touch + systemic / in life observation / clinical signs / salivation + …): 0.1 mg/kg/day | LOAEL (rat [14]; systemic / in life observation / mortality / mortality + systemic / pathology microscopic / kidney / hydronephrosis): 1 mg/kg/day | LEL (rat [14]; [40]): 1 mg/kg/day | NOAEL (rat [14]; [40]): 0.1 mg/kg/day
